Test: xn = mol fraction of the nth substance listed
Settings: Liquid, Pycnometric method

Cn1ccnc1 [1-methylimidazole] + O=C=O
Settings | mass density [kg/m3]
308.2 K, 15540 kPa, x1 = 0.1024 | 981
308.2 K, 15600 kPa, x1 = 0.0247 | 901
308.2 K, 16080 kPa, x1 = 0.1024 | 984
308.2 K, 16570 kPa, x1 = 0.1024 | 987
308.2 K, 17250 kPa, x1 = 0.1024 | 991
308.2 K, 17650 kPa, x1 = 0.1024 | 994
308.2 K, 18340 kPa, x1 = 0.1024 | 998
308.2 K, 18880 kPa, x1 = 0.1024 | 1001
309.8 K, 8020 kPa, x1 = 0.0102 | 543
309.8 K, 8030 kPa, x1 = 0.0102 | 551
309.8 K, 8040 kPa, x1 = 0.0102 | 560
309.8 K, 8060 kPa, x1 = 0.0102 | 571
309.8 K, 8070 kPa, x1 = 0.0102 | 581
309.8 K, 8090 kPa, x1 = 0.0102 | 589
309.8 K, 8110 kPa, x1 = 0.0102 | 600
309.8 K, 8140 kPa, x1 = 0.0102 | 612
309.8 K, 8180 kPa, x1 = 0.0102 | 624
309.8 K, 8230 kPa, x1 = 0.0102 | 636
309.8 K, 8300 kPa, x1 = 0.0102 | 649
309.8 K, 8390 kPa, x1 = 0.0102 | 663
309.8 K, 8500 kPa, x1 = 0.0102 | 677
309.8 K, 8650 kPa, x1 = 0.0102 | 691
309.8 K, 8830 kPa, x1 = 0.0102 | 707
309.8 K, 9090 kPa, x1 = 0.0102 | 723
309.8 K, 9420 kPa, x1 = 0.0102 | 740
309.8 K, 9830 kPa, x1 = 0.0102 | 758
309.8 K, 10210 kPa, x1 = 0.0102 | 772
309.8 K, 10880 kPa, x1 = 0.0102 | 790
309.8 K, 11970 kPa, x1 = 0.0102 | 816
309.8 K, 12530 kPa, x1 = 0.0102 | 826
309.8 K, 13140 kPa, x1 = 0.0102 | 836
309.8 K, 13680 kPa, x1 = 0.0102 | 846
313.1 K, 8750 kPa, x1 = 0.0102 | 576
313.1 K, 8770 kPa, x1 = 0.0102 | 581
313.1 K, 8810 kPa, x1 = 0.0102 | 589
313.1 K, 8850 kPa, x1 = 0.0102 | 597
313.1 K, 8890 kPa, x1 = 0.0102 | 606
313.1 K, 8900 kPa, x1 = 0.0247 | 717
313.1 K, 8940 kPa, x1 = 0.0102 | 615
313.1 K, 8990 kPa, x1 = 0.0102 | 624
313.1 K, 9000 kPa, x1 = 0.0247 | 723
313.1 K, 9040 kPa, x1 = 0.0102 | 633
313.1 K, 9120 kPa, x1 = 0.0102 | 643
313.1 K, 9120 kPa, x1 = 0.0247 | 729
313.1 K, 9200 kPa, x1 = 0.0102 | 653
313.1 K, 9260 kPa, x1 = 0.0247 | 737
313.1 K, 9300 kPa, x1 = 0.0102 | 663
313.1 K, 9400 kPa, x1 = 0.0247 | 744
313.1 K, 9420 kPa, x1 = 0.0102 | 673
313.1 K, 9550 kPa, x1 = 0.0102 | 684
313.1 K, 9560 kPa, x1 = 0.0247 | 751
313.1 K, 9700 kPa, x1 = 0.0102 | 695
313.1 K, 9730 kPa, x1 = 0.0247 | 759
313.1 K, 9900 kPa, x1 = 0.0102 | 707
313.1 K, 9940 kPa, x1 = 0.0247 | 766
313.1 K, 10070 kPa, x1 = 0.0487 | 827
313.1 K, 10130 kPa, x1 = 0.0102 | 719
313.1 K, 10170 kPa, x1 = 0.0247 | 774
313.1 K, 10190 kPa, x1 = 0.0487 | 830
313.1 K, 10320 kPa, x1 = 0.0487 | 833
313.1 K, 10380 kPa, x1 = 0.0102 | 731
313.1 K, 10440 kPa, x1 = 0.0487 | 835
313.1 K, 10560 kPa, x1 = 0.0487 | 838
313.1 K, 10570 kPa, x1 = 0.0247 | 786
313.1 K, 10690 kPa, x1 = 0.0487 | 841
313.1 K, 10700 kPa, x1 = 0.0102 | 744
313.1 K, 10830 kPa, x1 = 0.0487 | 843
313.1 K, 10870 kPa, x1 = 0.0247 | 794
313.1 K, 10990 kPa, x1 = 0.0487 | 846
313.1 K, 11080 kPa, x1 = 0.0102 | 758
313.1 K, 11130 kPa, x1 = 0.0487 | 849

Source: the NIST ThermoML archive (doi:10.1021/je900387e)
